Measured values published in PubChem BioAssay (NCI).
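1) Cells in 96-well plates. 2) Compound, 48 h, 5 concentrations. 3) Linear interpolation between surrounding doses. 4) Unreached endpoint = highest concentration. GI50: concentration for 50% inhibition of growth. TGI marks complete inhibition of growth.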

Tests used:
Experiment in all cases: DTP human tumour cell line panel, 48 h
786-0 renal = system: 786-0 renal
PC-3 prostate = system: PC-3 prostate
NCI-H460 lung = system: NCI-H460 lung
ACHN renal = system: ACHN renal
HT29 colon = system: HT29 colon
IGROV1 ovarian = system: IGROV1 ovarian
SF-539 CNS = system: SF-539 CNS
CCRF-CEM leukemia = system: CCRF-CEM leukemia
HOP-62 NSCLC = system: HOP-62 NSCLC
UACC-257 melanoma = system: UACC-257 melanoma
HCT-15 colon = system: HCT-15 colon
OVCAR-3 ovarian = system: OVCAR-3 ovarian
DU-145 prostate = system: DU-145 prostate
A549 NSCLC = system: A549 NSCLC
HS 578T breast = system: HS 578T breast
SF-268 CNS = system: SF-268 CNS
M14 melanoma = system: M14 melanoma
NCI-H522 lung = system: NCI-H522 lung
RXF 393 renal = system: RXF 393 renal
MDA-MB-435 = system: MDA-MB-435
SK-OV-3 ovarian = system: SK-OV-3 ovarian
NCI-H226 lung = system: NCI-H226 lung
SR leukemia = system: SR leukemia
MDA-MB-468 breast = system: MDA-MB-468 breast
HCC-2998 colon = system: HCC-2998 colon
HOP-92 NSCLC = system: HOP-92 NSCLC
BT-549 breast = system: BT-549 breast
A498 renal = system: A498 renal
EKVX NSCLC = system: EKVX NSCLC
HL-60(TB) leukemia = system: HL-60(TB) leukemia
NCI/ADR-RES ovarian = system: NCI/ADR-RES ovarian
TK-10 renal = system: TK-10 renal
MALME-3M melanoma = system: MALME-3M melanoma
OVCAR-8 ovarian = system: OVCAR-8 ovarian
SN12C renal = system: SN12C renal
CAKI-1 renal = system: CAKI-1 renal
LOX IMVI melanoma = system: LOX IMVI melanoma
SF-295 CNS = system: SF-295 CNS
UACC-62 melanoma = system: UACC-62 melanoma
SK-MEL-28 melanoma = system: SK-MEL-28 melanoma
COLO 205 colon = system: COLO 205 colon
KM12 colon = system: KM12 colon
U251 CNS = system: U251 CNS
HCT-116 colon = system: HCT-116 colon
MCF7 breast = system: MCF7 breast
SNB-19 CNS = system: SNB-19 CNS
MOLT-4 leukemia = system: MOLT-4 leukemia
T-47D breast = system: T-47D breast
SK-MEL-5 melanoma = system: SK-MEL-5 melanoma
NCI-H23 lung = system: NCI-H23 lung
K-562 leukemia = system: K-562 leukemia
RPMI-8226 leukemia = system: RPMI-8226 leukemia
OVCAR-5 ovarian = system: OVCAR-5 ovarian
SW-620 colon = system: SW-620 colon
OVCAR-4 ovarian = system: OVCAR-4 ovarian

SMILES: CC[C@]12C=CCN3CC[C@@]4(c5ccc(OC)cc5N(C)[C@H]4[C@@](O)(C(=O)OC)[C@@H]1OC(=O)CCC[P+](c1ccc(F)cc1)(c1ccc(F)cc1)c1ccc(F)cc1)[C@@H]32
- GI50 (786-0 renal): > 48.5 µM
- TGI (786-0 renal): > 48.5 µM
- GI50 (PC-3 prostate): 12.6 µM
- TGI (PC-3 prostate): > 48.5 µM
- GI50 (NCI-H460 lung): 17 µM
- TGI (NCI-H460 lung): > 48.5 µM
- GI50 (ACHN renal): > 48.5 µM
- TGI (ACHN renal): > 48.5 µM
- GI50 (HT29 colon): 12.5 µM
- TGI (HT29 colon): > 48.5 µM
- GI50 (IGROV1 ovarian): 7.09 µM
- TGI (IGROV1 ovarian): 18.2 µM
- GI50 (SF-539 CNS): 16.8 µM
- TGI (SF-539 CNS): > 48.5 µM
- GI50 (CCRF-CEM leukemia): 12.7 µM
- TGI (CCRF-CEM leukemia): 37.4 µM
- GI50 (HOP-62 NSCLC): 20.5 µM
- TGI (HOP-62 NSCLC): > 48.5 µM
- GI50 (UACC-257 melanoma): 4.67 µM
- TGI (UACC-257 melanoma): 12 µM
- GI50 (HCT-15 colon): > 48.5 µM
- TGI (HCT-15 colon): > 48.5 µM
- GI50 (OVCAR-3 ovarian): 6.47 µM
- TGI (OVCAR-3 ovarian): 40.7 µM
- GI50 (DU-145 prostate): 23.7 µM
- TGI (DU-145 prostate): > 48.5 µM
- GI50 (A549 NSCLC): 21.2 µM
- TGI (A549 NSCLC): > 48.5 µM
- GI50 (HS 578T breast): 11.8 µM
- TGI (HS 578T breast): 42.4 µM
- GI50 (SF-268 CNS): 15 µM
- TGI (SF-268 CNS): > 48.5 µM
- GI50 (M14 melanoma): 9.1 µM
- TGI (M14 melanoma): 28.9 µM
- GI50 (NCI-H522 lung): 3.88 µM
- TGI (NCI-H522 lung): 32 µM
- GI50 (RXF 393 renal): 8.46 µM
- TGI (RXF 393 renal): 30.7 µM
- GI50 (MDA-MB-435): 8.14 µM
- TGI (MDA-MB-435): 18.5 µM
- GI50 (SK-OV-3 ovarian): 15.8 µM
- TGI (SK-OV-3 ovarian): > 48.5 µM
- GI50 (NCI-H226 lung): 24.2 µM
- TGI (NCI-H226 lung): > 48.5 µM
- GI50 (SR leukemia): 7.45 µM
- TGI (SR leukemia): 17.3 µM
- GI50 (MDA-MB-468 breast): 1.5 µM
- TGI (MDA-MB-468 breast): 6.3 µM
- GI50 (HCC-2998 colon): 9.53 µM
- TGI (HCC-2998 colon): 30 µM
- GI50 (HOP-92 NSCLC): 5.44 µM
- TGI (HOP-92 NSCLC): 19.9 µM
- GI50 (BT-549 breast): 8.13 µM
- TGI (BT-549 breast): 26.5 µM
- GI50 (A498 renal): > 48.5 µM
- TGI (A498 renal): > 48.5 µM
- GI50 (EKVX NSCLC): 19.4 µM
- TGI (EKVX NSCLC): > 48.5 µM
- GI50 (HL-60(TB) leukemia): 1.77 µM
- TGI (HL-60(TB) leukemia): 7.82 µM
- GI50 (NCI/ADR-RES ovarian): > 48.5 µM
- TGI (NCI/ADR-RES ovarian): > 48.5 µM
- GI50 (TK-10 renal): 22.2 µM
- TGI (TK-10 renal): > 48.5 µM
- GI50 (MALME-3M melanoma): 6.85 µM
- TGI (MALME-3M melanoma): 14 µM
- GI50 (OVCAR-8 ovarian): 18.4 µM
- TGI (OVCAR-8 ovarian): > 48.5 µM
- GI50 (SN12C renal): 14.8 µM
- TGI (SN12C renal): > 48.5 µM
- GI50 (CAKI-1 renal): > 48.5 µM
- TGI (CAKI-1 renal): > 48.5 µM
- GI50 (LOX IMVI melanoma): 16.6 µM
- TGI (LOX IMVI melanoma): > 48.5 µM
- GI50 (SF-295 CNS): > 48.5 µM
- TGI (SF-295 CNS): > 48.5 µM
- GI50 (UACC-62 melanoma): 6.05 µM
- TGI (UACC-62 melanoma): 12.3 µM
- GI50 (SK-MEL-28 melanoma): 5.34 µM
- TGI (SK-MEL-28 melanoma): 11.6 µM
- GI50 (COLO 205 colon): 4.98 µM
- TGI (COLO 205 colon): 11.1 µM
- GI50 (KM12 colon): 8.96 µM
- TGI (KM12 colon): 20.6 µM
- GI50 (U251 CNS): 9.36 µM
- TGI (U251 CNS): > 48.5 µM
- GI50 (HCT-116 colon): 14.8 µM
- TGI (HCT-116 colon): > 48.5 µM
- GI50 (MCF7 breast): 8.26 µM
- TGI (MCF7 breast): 30.8 µM
- GI50 (SNB-19 CNS): 11.4 µM
- TGI (SNB-19 CNS): > 48.5 µM
- GI50 (MOLT-4 leukemia): 9.69 µM
- TGI (MOLT-4 leukemia): > 48.5 µM
- GI50 (T-47D breast): 10.5 µM
- TGI (T-47D breast): > 48.5 µM
- GI50 (SK-MEL-5 melanoma): 8.26 µM
- TGI (SK-MEL-5 melanoma): 15.7 µM
- GI50 (NCI-H23 lung): 15.8 µM
- TGI (NCI-H23 lung): > 48.5 µM
- GI50 (K-562 leukemia): 9.83 µM
- TGI (K-562 leukemia): > 48.5 µM
- GI50 (RPMI-8226 leukemia): 2.05 µM
- TGI (RPMI-8226 leukemia): 9.33 µM
- GI50 (OVCAR-5 ovarian): 20.8 µM
- TGI (OVCAR-5 ovarian): > 48.5 µM
- GI50 (SW-620 colon): 18.3 µM
- TGI (SW-620 colon): > 48.5 µM
- GI50 (OVCAR-4 ovarian): 16.2 µM
- TGI (OVCAR-4 ovarian): > 48.5 µM
